Publication PMC11790914, “Chemogenomics for steroid hormone receptors (NR3)” (Communications Chemistry, 2025)
“And” between values parts separate entries of the source, which are not always exact repeats. Identical values can stand only once.

How the values were obtained:
[1] = system: ATF6 activity in Hela ATF6 reporter cells; experiment: Endoplasmic reticulum stress assay (ATF6 Renilla luciferase reporter, tunicamycin); type: cell-based; details: for ATF6 activity (tunicamycin-induced endoplasmic reticulum stress): Hela ATF6 reporter cells, tunicamycin 100 ng/mL, 18 h
Summary of the method: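 ER stress was induced by 100 ng/mL tunicamycin added 4 h after compound (0.1% DMSO) to HeLa ATF6 reporter cells. After 18 h more, Renilla luciferase signal was read and expressed relative to DMSO control, n=5 biological replicates.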

[2] = target: T1, CDK2 (Homo sapiens, UniProt P24941); experiment: Liability panel screening by DSF: CDK2; type: binding; details: DSF, 20 µM, n=2; read-out: Mean ΔTM CDK2
T1 construct: made in house
Summary of the method: (§1)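 Recombinant protein at 2 µM in 10 mM HEPES pH 7.5 with 500 mM NaCl was mixed with SYPRO Orange (1:1000) and heated at 3 °C/min up to 85 °C. Tm was taken as the Boltzmann-fit inflection point. Shifts are ∆Tm in K from technical duplicates.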

[3] = target: T2, AURKA (Homo sapiens, UniProt O14965); experiment: Liability panel screening by DSF: AURKA; type: binding; details: DSF, 20 µM, n=2; read-out: Mean ΔTM AURKA
T2 construct: made in house
T2 sequence (O14965 1-403): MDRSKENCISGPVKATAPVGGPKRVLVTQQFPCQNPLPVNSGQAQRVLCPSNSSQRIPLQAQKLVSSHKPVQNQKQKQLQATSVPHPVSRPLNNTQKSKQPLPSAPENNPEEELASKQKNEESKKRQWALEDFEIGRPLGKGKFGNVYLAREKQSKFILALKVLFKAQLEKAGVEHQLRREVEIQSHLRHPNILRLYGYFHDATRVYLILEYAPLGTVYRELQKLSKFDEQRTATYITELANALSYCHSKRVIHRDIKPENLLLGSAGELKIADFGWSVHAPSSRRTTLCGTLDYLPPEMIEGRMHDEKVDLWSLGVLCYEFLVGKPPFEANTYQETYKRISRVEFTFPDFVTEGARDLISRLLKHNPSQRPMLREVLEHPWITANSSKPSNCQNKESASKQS
Summary of the method: as §1

[4] = target: T3, FGFR3 (Homo sapiens, UniProt P22607); experiment: Liability panel screening by DSF: FGFR3; type: binding; details: DSF, 20 µM, n=2; read-out: Mean ΔTM FGFR3
T3 construct: made in house
T3 sequence (P22607 23-806, species assumed): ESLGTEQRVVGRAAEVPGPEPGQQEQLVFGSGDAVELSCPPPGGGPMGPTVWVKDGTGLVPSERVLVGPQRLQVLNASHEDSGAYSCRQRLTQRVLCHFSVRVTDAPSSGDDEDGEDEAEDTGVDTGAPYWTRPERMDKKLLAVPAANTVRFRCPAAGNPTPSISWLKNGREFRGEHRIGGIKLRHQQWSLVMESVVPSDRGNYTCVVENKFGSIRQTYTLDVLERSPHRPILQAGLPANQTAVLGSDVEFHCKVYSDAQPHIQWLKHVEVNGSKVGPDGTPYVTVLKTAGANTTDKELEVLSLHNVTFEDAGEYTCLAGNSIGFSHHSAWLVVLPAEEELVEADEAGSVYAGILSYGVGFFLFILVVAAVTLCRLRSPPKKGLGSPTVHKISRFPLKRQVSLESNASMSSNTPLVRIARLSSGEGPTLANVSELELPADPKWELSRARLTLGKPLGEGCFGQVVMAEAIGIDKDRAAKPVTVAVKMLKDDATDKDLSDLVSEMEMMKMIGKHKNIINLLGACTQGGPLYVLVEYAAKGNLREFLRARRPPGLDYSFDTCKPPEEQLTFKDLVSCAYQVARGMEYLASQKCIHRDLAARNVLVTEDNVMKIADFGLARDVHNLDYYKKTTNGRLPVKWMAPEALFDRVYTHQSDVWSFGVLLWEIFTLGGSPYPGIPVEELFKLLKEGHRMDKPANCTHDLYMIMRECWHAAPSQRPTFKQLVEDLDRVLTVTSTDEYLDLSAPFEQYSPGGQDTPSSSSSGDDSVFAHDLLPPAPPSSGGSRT
Summary of the method: as §1

[5] = system: HEK293T cells; experiment: Cytotoxicity: apoptosis induction (caspase-3/7 DEVD fluorogenic DNA dye); details: HEK293T, 24 h, apoptotic cell count normalized to 0.1% DMSO, single replicates
[6] = target: T4, CSNK1D (Homo sapiens, UniProt P48730); experiment: Liability panel screening by DSF: CSNK1D; type: binding; details: DSF, 20 µM, n=2; read-out: Mean ΔTM CSNK1D
T4 construct: made in house
T4 sequence (P48730 whole entry, species assumed): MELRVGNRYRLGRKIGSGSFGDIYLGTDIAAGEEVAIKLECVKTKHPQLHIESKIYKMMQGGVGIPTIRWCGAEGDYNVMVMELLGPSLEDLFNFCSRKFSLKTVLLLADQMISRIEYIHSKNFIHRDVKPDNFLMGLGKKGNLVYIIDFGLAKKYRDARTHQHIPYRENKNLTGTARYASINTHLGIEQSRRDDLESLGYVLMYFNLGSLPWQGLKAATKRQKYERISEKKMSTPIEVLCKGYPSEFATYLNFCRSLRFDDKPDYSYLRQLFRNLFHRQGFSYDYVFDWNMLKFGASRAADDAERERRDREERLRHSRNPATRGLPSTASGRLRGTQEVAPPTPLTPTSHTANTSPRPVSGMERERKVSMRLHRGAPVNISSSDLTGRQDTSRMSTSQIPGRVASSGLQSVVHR
Summary of the method: as §1

[7] = target: T5, MAPK1 (Homo sapiens, UniProt P28482); experiment: Liability panel screening by DSF: MAPK1; type: binding; details: DSF, 20 µM, n=2; read-out: Mean ΔTM MAPK1
T5 construct: made in house
T5 sequence (P28482 whole entry, species assumed): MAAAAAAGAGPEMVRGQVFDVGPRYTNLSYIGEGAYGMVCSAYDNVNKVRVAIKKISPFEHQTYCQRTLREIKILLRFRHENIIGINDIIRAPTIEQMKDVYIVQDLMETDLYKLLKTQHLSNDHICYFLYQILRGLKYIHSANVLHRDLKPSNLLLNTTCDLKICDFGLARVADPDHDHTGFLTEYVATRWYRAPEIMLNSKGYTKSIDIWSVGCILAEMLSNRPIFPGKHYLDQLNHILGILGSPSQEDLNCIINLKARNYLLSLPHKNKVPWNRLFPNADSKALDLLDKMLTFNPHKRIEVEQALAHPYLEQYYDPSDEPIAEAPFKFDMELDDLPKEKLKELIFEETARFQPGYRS
Summary of the method: as §1

[8] = system: NF-κB activity in HEK293 NF-κB reporter cells; experiment: NF-kB activity assay (GFP reporter, ionomycin/PMA); type: cell-based; details: n=3
Summary of the method: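 Reporter readout: GFP-expressing cells normalized to confluence, imaged every 90 min across 24 h after ionomycin (100 ng/mL)/PMA (10 ng/mL) stimulation of HEK293 cells pre-treated 4 h with compound (0.1% DMSO); triplicate independent experiments.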

[9] = target: T6, ABL1 (Homo sapiens, UniProt P00519); experiment: Liability panel screening by DSF: ABL1; type: binding; details: DSF, 20 µM, n=2; read-out: Mean ΔTM ABL1
T6 construct: made in house
T6 sequence (P00519 whole entry, species assumed): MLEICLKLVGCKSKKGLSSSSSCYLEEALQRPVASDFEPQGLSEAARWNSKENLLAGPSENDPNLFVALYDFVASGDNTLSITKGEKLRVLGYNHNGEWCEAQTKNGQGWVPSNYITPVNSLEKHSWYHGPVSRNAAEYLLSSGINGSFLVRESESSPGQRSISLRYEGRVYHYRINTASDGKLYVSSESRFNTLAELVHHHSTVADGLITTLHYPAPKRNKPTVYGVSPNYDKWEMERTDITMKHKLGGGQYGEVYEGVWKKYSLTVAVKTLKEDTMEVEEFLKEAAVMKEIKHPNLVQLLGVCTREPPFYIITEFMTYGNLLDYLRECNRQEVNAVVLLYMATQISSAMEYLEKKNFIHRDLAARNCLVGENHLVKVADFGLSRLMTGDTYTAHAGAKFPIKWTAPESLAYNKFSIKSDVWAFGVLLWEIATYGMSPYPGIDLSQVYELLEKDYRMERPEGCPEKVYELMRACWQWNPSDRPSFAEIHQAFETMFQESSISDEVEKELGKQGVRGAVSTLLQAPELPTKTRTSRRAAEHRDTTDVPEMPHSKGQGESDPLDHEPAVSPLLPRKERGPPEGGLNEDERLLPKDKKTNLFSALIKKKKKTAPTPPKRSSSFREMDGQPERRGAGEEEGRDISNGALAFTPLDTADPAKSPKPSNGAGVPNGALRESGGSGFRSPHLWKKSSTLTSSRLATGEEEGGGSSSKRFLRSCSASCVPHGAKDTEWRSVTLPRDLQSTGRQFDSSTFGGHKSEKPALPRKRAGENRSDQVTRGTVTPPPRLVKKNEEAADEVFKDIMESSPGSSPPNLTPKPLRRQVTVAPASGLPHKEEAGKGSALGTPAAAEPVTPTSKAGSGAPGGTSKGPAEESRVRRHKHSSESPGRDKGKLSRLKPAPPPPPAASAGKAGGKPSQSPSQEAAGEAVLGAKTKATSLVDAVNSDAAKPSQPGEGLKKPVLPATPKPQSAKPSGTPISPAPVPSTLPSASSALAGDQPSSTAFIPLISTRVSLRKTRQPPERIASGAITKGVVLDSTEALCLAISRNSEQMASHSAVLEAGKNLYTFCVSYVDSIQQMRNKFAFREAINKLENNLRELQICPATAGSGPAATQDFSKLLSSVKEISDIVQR
Summary of the method: as §1

[10] = system: HEK293T cells; experiment: Cytotoxicity: growth-rate (change in confluence over 24 h); details: normalized to 0.1% DMSO control, single replicates (n=1...)
[11] = target: T7, TRIM24 (Homo sapiens, UniProt O15164); experiment: Liability panel screening by DSF: TRIM24; type: binding; details: DSF, 20 µM, n=2; read-out: Mean ΔTM TRIM24
T7 construct: This panel comprised ten highly ligandable kinases and bromodomains; made in house
T7 sequence (O15164 899-1004 limits assumed): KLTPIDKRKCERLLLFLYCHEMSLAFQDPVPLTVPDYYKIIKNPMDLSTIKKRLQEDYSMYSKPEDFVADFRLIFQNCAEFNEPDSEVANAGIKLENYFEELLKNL
Summary of the method: as §1

[12] = system: HEK293T cells; experiment: Cytotoxicity: metabolic activity (WST-8 / CCK-8 assay); details: HEK293T, 24 h, WST-8, normalized to 0.1% DMSO, single replicates
[13] = target: T8, BRD4 (Homo sapiens, UniProt O60885); experiment: Liability panel screening by DSF: BRD4; type: binding; details: DSF, 20 µM, n=2; read-out: Mean ΔTM BRD4
T8 construct: This panel comprised ten highly ligandable kinases and bromodomains; made in house
Summary of the method: as §1

In the case of `CC/C(=C(\c1ccc(O)cc1)c1ccc(OCCN(C)C)cc1)c1ccccc1` [(Z)-4-Hydroxytamoxifen], the “ATF6 activity (tunicamycin-induced endoplasmic reticulum stress)” value ([1]; 0.3 µM) is reported as “mediated resolution of the tunicamycin-induced endoplasmic reticulum stress”, the “ATF6 activity (tunicamycin-induced endoplasmic reticulum stress)” value ([1]; 3 µM) is reported as “lacked this effect” and the activity at 0.3 µM ([1]; Homo sapiens, HeLa, 0.3 µM, single replicates n=1 to n=5, read-out: ER stress [rel. ATF6 activity]) is reported as 51%. For the same compound, the ΔTm at 20 µM [2] was -0.23 °C, the ΔTm at 20 µM [3] was 0.07 °C and the ΔTm at 20 µM [4] was 0.53 °C. For the same compound, the “Apoptosis induction [AI]” value ([5]; 0.3 µM) was 0.84 and 1.40 and 1.81 and 1.38 and 0.62 and 0.65, the “Apoptosis induction [AI]” value ([5]; 3 µM) was 1.07 and 1.34 and 1.98 and 1.60 and 1.04 and 1.22 and the ΔTm at 20 µM [6] was 0.12 °C. For the same compound, the ΔTm at 20 µM [7] was 0.0336 °C, the “Mean NFκB response” value ([8]; 0.3 µM, 1,5 h) was 2504.77 GFP+-cells/confluence ∙ 1000 and the “Mean NFκB response” value ([8]; 0.3 µM, 4,5 h) was 3089.76 GFP+-cells/confluence ∙ 1000. The “Mean NFκB response” value ([8]; 0.3 µM, 7,5 h) was 8223.00 GFP+-cells/confluence ∙ 1000, the “Mean NFκB response” value ([8]; 0.3 µM, 10,5 h) was 20009.52 GFP+-cells/confluence ∙ 1000 and the “Mean NFκB response” value ([8]; 0.3 µM, 13,5 h) was 28937.88 GFP+-cells/confluence ∙ 1000. The “Mean NFκB response” value ([8]; 0.3 µM, 16,6 h) was 35283.33 GFP+-cells/confluence ∙ 1000, the “Mean NFκB response” value ([8]; 0.3 µM, 19,5 h) was 40116.67 GFP+-cells/confluence ∙ 1000 and the “Mean NFκB response” value ([8]; 0.3 µM, 22,5 h) was 43200.00 GFP+-cells/confluence ∙ 1000. The “Mean NFκB response” value ([8]; 0.3 µM, 3 h) was 2555.89 GFP+-cells/confluence ∙ 1000, the “Mean NFκB response” value ([8]; 0.3 µM, 6 h) was 4572.00 GFP+-cells/confluence ∙ 1000 and the “Mean NFκB response” value ([8]; 0.3 µM, 9 h) was 14658.14 GFP+-cells/confluence ∙ 1000. The “Mean NFκB response” value ([8]; 0.3 µM, 12 h) was 24637.27 GFP+-cells/confluence ∙ 1000, the “Mean NFκB response” value ([8]; 0.3 µM, 15 h) was 32269.00 GFP+-cells/confluence ∙ 1000 and the “Mean NFκB response” value ([8]; 0.3 µM, 18 h) was 37590.00 GFP+-cells/confluence ∙ 1000. The “Mean NFκB response” value ([8]; 0.3 µM, 21 h) was 41653.33 GFP+-cells/confluence ∙ 1000, the “Mean NFκB response” value ([8]; 0.3 µM, 24 h) was 44413.33 GFP+-cells/confluence ∙ 1000 and the “Mean NFκB response” value ([8]; 3 µM, 1,5 h) was 2613.90 GFP+-cells/confluence ∙ 1000. For the same compound, the “Mean NFκB response” value ([8]; 3 µM, 4,5 h) was 3334.14 GFP+-cells/confluence ∙ 1000, the “Mean NFκB response” value ([8]; 3 µM, 7,5 h) was 7514.38 GFP+-cells/confluence ∙ 1000 and the “Mean NFκB response” value ([8]; 3 µM, 10,5 h) was 19242.21 GFP+-cells/confluence ∙ 1000. For the same compound, the “Mean NFκB response” value ([8]; 3 µM, 13,5 h) was 28764.40 GFP+-cells/confluence ∙ 1000, the “Mean NFκB response” value ([8]; 3 µM, 16,6 h) was 35561.15 GFP+-cells/confluence ∙ 1000 and the “Mean NFκB response” value ([8]; 3 µM, 19,5 h) was 40217.80 GFP+-cells/confluence ∙ 1000. For the same compound, the “Mean NFκB response” value ([8]; 3 µM, 22,5 h) was 43818.60 GFP+-cells/confluence ∙ 1000, the “Mean NFκB response” value ([8]; 3 µM, 3 h) was 2770.52 GFP+-cells/confluence ∙ 1000 and the “Mean NFκB response” value ([8]; 3 µM, 6 h) was 4451.37 GFP+-cells/confluence ∙ 1000. The “Mean NFκB response” value ([8]; 3 µM, 9 h) was 13511.36 GFP+-cells/confluence ∙ 1000, the “Mean NFκB response” value ([8]; 3 µM, 12 h) was 24240.37 GFP+-cells/confluence ∙ 1000 and the “Mean NFκB response” value ([8]; 3 µM, 15 h) was 32735.51 GFP+-cells/confluence ∙ 1000. The “Mean NFκB response” value ([8]; 3 µM, 18 h) was 38442.69 GFP+-cells/confluence ∙ 1000, the “Mean NFκB response” value ([8]; 3 µM, 21 h) was 42295.79 GFP+-cells/confluence ∙ 1000 and the “Mean NFκB response” value ([8]; 3 µM, 24 h) was 44964.03 GFP+-cells/confluence ∙ 1000. For the same compound, the ΔTm at 20 µM [9] was 0.29 °C, the “Growth rate [GR]” value ([10]; 0.3 µM) was 1.08 and 2.89 and 1.33 and 1.37 and 0.91 and 0.88 and 0.61 and 1.06 and 2.68 and 37.77 and the “Growth rate [GR]” value ([10]; 3 µM) was 0.97 and 4.28 and 1.10 and 0.79 and 0.56 and 0.41 and 0.43 and 1.54 and 1.12 and 39.66. The ΔTm at 20 µM [11] was -0.41 °C, the “Metabolic activity [MA]” value ([12]; 0.3 µM) was 1.00 and 1.02 and 0.89 and 0.98 and 0.96 and 0.95 and 1.06 and 0.84 and the “Metabolic activity [MA]” value ([12]; 3 µM) was 0.88 and 0.94 and 0.92 and 0.98 and 0.96 and 0.89 and 1.00 and 0.84. For the same compound, the ΔTm at 20 µM [13] was -3.37 °C.
